How the values were obtained:
Type in all cases: cell-based
[1] = system: retromer subunit VPS35 / HPV16 L1; experiment: Proximity ligation assay for HPV16 L1 and VPS35 in peptide-treated infected cells; conditions: 14 μM, MOI of 200, eight h.p.i.
Method: FIG. 19A depicts uninfected HeLa cells were incubated with 14 μM bP16/16 or bPDM/16 for three hours (“b” refers to peptides with an N-terminal biotin moiety). Cells were then fixed, permeabilized, and stained with AlexaFluor-streptavidin (green) and with anti-VPS35 (red). Overlapping signal is pseudocolored yellow. Nuclei were stained blue with DAPI. Mander's correlation coefficients for overlap between streptavidin and VPS35 staining are shown at right, with each spot representing an individual cell. Approximately 100 cells were analyzed for each condition. […] Images were processed by Fiji and quantitatively analyzed by BlobFinder software to measure total fluorescence intensity per cell in each sample. […]
For the proximity ligation assay, after an hour incubation with peptides, HeLa-S3 cells were infected with wild-type PSV at MOI of 200 or mutant PsV containing the same number of reporter plasmid genomes. […] The nuclei were stained by using Abcam fluorescence mounting medium with DAPI and images were acquired by a Leica SP5 inverted fluorescence microscope. […] The images were processed by Fiji and quantitatively analyzed by BlobFinder software to measure total fluorescence intensity in each sample. The average fluorescence intensity per cell in each sample was normalized to the control sample as indicated in each experiment. […]

[2] = system: HPV5 PsV; experiment: Peptide inhibition of HPV5 PsV infection of HeLa-S3 cells, flow cytometry for HcRed; conditions: 14 μM peptide, MOI of one, 48 h.p.i.
Source text: FIG. 18A (top) depicts sequences of L2 peptides. […] Amino acid substitutions in the CPP or RBS mutant peptides are shown in orange and blue, respectively. Bottom: RBS and flanking sequences of indicated HPV L2 proteins or DMT1-II. FIG. 18B depicts an inhibitory dose-response curve for P16/16 peptide. 5×10^4 HeLa-S3 in 24-well plates were pretreated with various concentrations of P16/16 for one hour prior to infection with HPV pseudovirus (PsV) at multiplicity of infection (MOI) of 1. Peptide was left in the medium for the duration of the experiment. Cells were assessed by flow cytometry to determine the fraction of cells expressing reporter protein HcRed at 48 hours post-infection (h.p.i.). […] Forty-eight h.p.i., cells were assessed by flow cytometry to determine fraction of cells expressing reporter protein HcRed. […] HaCaT keratinocytes were infected at MOI of 1 with HPV16 PsV in the presence and absence of 14 μM P16/16, and infectivity was assessed 48 h.p.i. by flow cytometry for HcRed fluorescence. […] Successful infection by HPV16 and HPV16 PsV was assessed by quantitative reverse transcription-PCR (qRT-PCR) for expression of HPV early region and HcRed mRNA, respectively, and normalized to infection by the cognate virus in the absence of peptide. Background signal determined with non-cognate primers was <0.01%. […]

[3] = system: HeLa-S3 cells; experiment: CellTiter-Fluor viability assay; conditions: 14 μM for 4 or 24 hours
Method: HeLa-S3 cells were incubated with medium, medium plus vehicle, or medium plus 14 μM P16/16 for 4 or 24 hours. Viability assay was performed by using the CellTiter-Fluor viability assay protocol (Promega, Cat #G6082). Briefly, an equal volume of CellTiter-Fluor reagent was added to each well without removing the medium, mixed briefly, then incubated for one hour at 37° C. Fluorescence was measured by using a GloMax Explorer Multimode Microplate Reader (380-400 nmEx/505 nmEm). n.s., not significant.

CC[C@H](C)[C@H](NC(=O)[C@@H](NC(=O)[C@H](Cc1ccc(O)cc1)NC(=O)[C@H](CCC(N)=O)NC(=O)[C@@H]1CCCN1C(=O)[C@H](CO)NC(=O)[C@@H](N)CS)[C@@H](C)O)C(=O)N[C@H](C(=O)N[C@@H](C)C(=O)N[C@@H](CC(=O)O)C(=O)N[C@@H](C)C(=O)NCC(=O)N[C@@H](CC(=O)O)C(=O)N[C@@H](Cc1ccccc1)C(=O)N[C@@H](Cc1ccc(O)cc1)C(=O)N[C@@H](CC(C)C)C(=O)N[C@@H](Cc1c[nH]cn1)C(=O)N1CCC[C@H]1C(=O)N[C@@H](CO)C(=O)N[C@@H](Cc1ccc(O)cc1)C(=O)N[C@@H](Cc1ccc(O)cc1)C(=O)N[C@@H](CCSC)C(=O)N[C@@H](CC(C)C)C(=O)N[C@@H](CCCNC(=N)N)C(=O)N[C@@H](CCCCN)C(=O)N[C@@H](CCCNC(=N)N)C(=O)N[C@@H](CCCNC(=N)N)C(=O)N[C@@H](CCCCN)C(=O)N[C@@H](CCCNC(=N)N)C(=O)O)[C@@H](C)CC [P16/16]
interaction of retromer with HPV (VPS35/L1 PLA) [1]: inhibited the interaction of retromer with HPV
inhibition of HPV5 PsV infection [2]: potently inhibited infection
toxicity (morphology and cell viability assay) [3]: no apparent toxicity

— patent US12060388B2, “Cell-penetrating peptides and methods of use thereof” (priority 2018, dated 2024)
